Reference: ChEMBL document CHEMBL1154545, “Optimization of a series of 4,6-bis-anilino-1H-pyrrolo[2,3-d]pyrimidine inhibitors of IGF-1R: elimination of an acid-mediated decomposition pathway” (Bioorg Med Chem Lett, 2009)

Experiments:
[1] = molecular target: T1, Insulin-like growth factor 1 receptor (Homo sapiens, UniProt P08069)
Description: Inhibition of IGF1R phosphorylation by cellular assay

[2] = molecular target: T1, Insulin-like growth factor 1 receptor; remark: listed apart in the source
[3] = Chemical stability assessed as half life in 0.1 N HCl by LC-MS; assay type: physicochemical
[4] = molecular target: ALK tyrosine kinase receptor (Homo sapiens, UniProt Q9UM73); assay: Inhibition of ALK
[5] = Bioavailability in rat at 9.8 mg/kg, po; assay type: ADME, organism-based; details: in vivo
[6] = Clearance in rat at 2.2 mg/kg, iv or 9.8 mg/kg, po; assay type: ADME, organism-based; details: in vivo
Rattus norvegicus [7] = assay: Dose normalized AUC in rat at 9.8 mg/kg, po; assay type: ADME, organism-based; parameters: dose 9.8 mg/kg, route oral; details: in vivo
[8] = molecular target: Phosphatidylinositol 4,5-bisphosphate 3-kinase catalytic subunit alpha isoform (Homo sapiens, UniProt P42336); assay: Inhibition of PI3K
[9] = molecular target: RAC-alpha serine/threonine-protein kinase (Homo sapiens, UniProt P31749); assay: Inhibition of AKT
Rattus norvegicus [10] = assay: Dose normalized AUC in rat at 9.2 mg/kg, po; assay type: ADME, organism-based; parameters: dose 9.2 mg/kg, route oral; details: in vivo
[11] = Clearance in rat at 2.1 mg/kg, iv or 9.2 mg/kg, po; assay type: ADME, organism-based; details: in vivo
[12] = Bioavailability in rat at 9.2 mg/kg, po; assay type: ADME, organism-based; details: in vivo

Row | Structure (SMILES) | IC50 [1] | IC50 [2] | half-life [3] | further results
1 | CCCN1CCC(c2ccc(Nc3nc(Nc4ccsc4C(N)=O)c4cc[nH]c4n3)c(OC)c2)CC1 | 52 nM | 1.3 nM | 38.3 days | –
2 | COc1cc(N2CCC(N3CCN(S(C)(=O)=O)CC3)CC2)ccc1Nc1nc(Nc2ccsc2C(N)=O)c2cc[nH]c2n1 | 92 nM | 5 nM | 17.9 days | –
3 | COc1cc2c(cc1Nc1nc(Nc3ccoc3C(N)=O)c3cc[nH]c3n1)N(C(=O)CN(C)C)CC2 | – | – | > 41.7 days | –
4 | COc1cc2c(cc1Nc1nc(Nc3cccnc3C(N)=O)c3cc[nH]c3n1)N(C(=O)CN(C)C)CCC2 | 18 nM | 0.5 nM | 1.12 days | –
5 | COc1cc2c(cc1Nc1nc(N3CCc4ccccc43)c3cc[nH]c3n1)N(C(=O)CN(C)C)CC2 [GSK-2186269A] | 160 nM | 0.8 nM | > 41.7 days | –
6 | COc1cc(N2CCN(C(C)C)CC2)ccc1Nc1nc(Nc2cccc3ncccc23)c2cc[nH]c2n1 [GSK-1511931A] | 2530 nM | 250 nM | – | –
7 | COc1cc2c(cc1Nc1nc(Nc3cccc(F)c3C(N)=O)c3cc[nH]c3n1)N(C(=O)CN(C)C)CC2 | 54 nM | 1 nM | 0.0833 days | –
8 | COc1cc(N2CCN(C(C)C)CC2)ccc1Nc1nc(Nc2cc(F)cc(F)c2C(N)=O)c2cc[nH]c2n1 | – | 0.8 nM | 1.62 days | –
9 | COc1cc(N2CCN(C(C)C)CC2)ccc1Nc1nc(Nc2ccccc2-n2cccn2)c2cc[nH]c2n1 | 654 nM | 25 nM | – | –
10 | COc1cc2c(cc1Nc1nc(N3CCc4ccccc43)c3cc[nH]c3n1)N(C(=O)CN(C)C)CCC2 | 15 nM | 0.5 nM | > 41.7 days | –
11 | COc1cc(N2CCN(C(C)C)CC2)ccc1Nc1nc(-n2[nH]c(=O)c3ccccc32)c2cc[nH]c2n1 | 546 nM | 6 nM | – | –
12 | COc1cc2c(cc1Nc1nc(Nc3ccsc3C(N)=O)c3cc[nH]c3n1)N(C(=O)CN(C)C)CC2 | – | – | 10.4 days | IC50 [4]: 0.4 nM
13 | CNC(=O)c1cscc1Nc1nc(Nc2cc3c(cc2OC)CCN3C(=O)CN(C)C)nc2[nH]ccc12 | 25 nM | 2 nM | 16.2 days | –
14 | COc1cc(N2CCN(C(C)C)CC2)ccc1Nc1nc(Nc2ccc(F)c(F)c2C(N)=O)c2cc[nH]c2n1 | – | 1.3 nM | 0.708 days | –
15 | COc1cc2c(cc1Nc1nc(Nc3cccnc3C(N)=O)c3cc[nH]c3n1)N(C(=O)CN(C)C)CC2 | 38 nM | 0.7 nM | 0.625 days | –
16 | COc1cc2c(cc1Nc1nc(Nc3ccsc3C(N)=O)c3cc[nH]c3n1)N(C(=O)CN(C)C)CCC2 [GSK-2110236A] | 6 nM | < 0.2 nM | 34.6 days | –
17 | COc1cc(N2CCN(C(C)C)CC2)ccc1Nc1nc(Nc2ccsc2C(N)=O)c2cc[nH]c2n1 | 106 nM | 1.6 nM | > 41.7 days | –
18 | COc1cc(N2CCN(C(C)C)CC2)ccc1Nc1nc(Nc2cccc3c2NCC3)c2cc[nH]c2n1 | 1690 nM | 400 nM | – | –
19 | COc1cc(N2CCN(C(C)C)CC2)ccc1Nc1nc2[nH]ccc2c2nc3cccc(F)c3c(=O)n12 | 30000 nM | 7.9 nM | – | bioavailability [5]: 81%; clearance [6]: 47 mL/min/kg; AUC (Rattus norvegicus [7]): 18 ng·h/mL/mg/kg
20 | COc1cc(N2CCN(C(C)C)CC2)ccc1Nc1nc(N2CCc3ccccc32)c2cc[nH]c2n1 | 1770 nM | 10 nM | – | –
21 | COc1cc2c(cc1Nc1nc(Nc3ccoc3C(N)=O)c3cc[nH]c3n1)N(C(=O)CN(C)C)CCC2 | 9 nM | 0.3 nM | > 41.7 days | –
22 | COc1cc(N2CCN(C(C)C)CC2)ccc1Nc1nc(Nc2cc(F)ccc2C(N)=O)c2cc[nH]c2n1 | – | 0.7 nM | 0.167 days | –
23 | COc1cc(N2CCN(C(C)C)CC2)ccc1Nc1nc(Nc2cccc(F)c2C(=O)O)c2cc[nH]c2n1 [GSK-1819799A] | – | – | – | bioavailability [5]: 0%; clearance [6]: > 200 mL/min/kg; AUC (Rattus norvegicus [7]): 0 ng·h/mL/mg/kg
24 | COc1cc2c(cc1Nc1nc(Nc3ccsc3C(N)=O)c3cc[nH]c3n1)N(C(=O)CN(C)C)CCC2(C)C [GSK-2163632A] | < 2 nM | 0.2 nM | 30 days | –
25 | COc1cc(N2CCN(C(C)C)CC2)ccc1Nc1nc(Nc2ccc(F)cc2C(N)=O)c2cc[nH]c2n1 [GSK-1220512A] | – | 0.9 nM | 0.0833 days | –
26 | COc1cc2c(cc1Nc1nc(Nc3cccc4c3C(=O)NC4)c3cc[nH]c3n1)N(C(=O)CN(C)C)CC2 | 16 nM | 0.8 nM | > 41.7 days | IC50 [8]: 0.8 nM; IC50 [9]: 2.5 nM
27 | COc1cc(N2CCN(C(C)C)CC2)ccc1Nc1nc(Nc2ccc3ncccc3c2)c2cc[nH]c2n1 | 773 nM | 13 nM | – | –
28 | COc1cc(N2CCN(C(C)C)CC2)ccc1Nc1nc(Nc2cccc(F)c2C(N)=O)c2cc[nH]c2n1 | 117 nM | 2 nM | 0.708 days | AUC (Rattus norvegicus [10]): 156 ng·h/mL/mg/kg; clearance [11]: 51 mL/min/kg; bioavailability [12]: 65%
29 | COc1cc(N2CCN(C(C)C)CC2)ccc1Nc1nc(Nc2ccccc2OC)c2cc[nH]c2n1 | 982 nM | 32 nM | – | –
30 | COc1cc(N2CCN(CC(C)C)CC2)ccc1Nc1nc(Nc2ccccc2C#N)c2cc[nH]c2n1 | 2740 nM | 79 nM | – | –
